Measurements: patent publication US8956677B2, “High-potency sweetener composition with glucosamine and compositions sweetened therewith” (The Coca-Cola Company, priority 2005, dated 2015)

Experiment: Sensory evaluation of sweetness linger and sugar-like taste by a panel of experts
Assay type: in vivo
Set-up: key: 0=no sweetness linger; 1=very slight sweetness linger; 2=slight sweetness linger; 3=moderate sweetness linger; 4=moderately high sweetness linger; 5=high sweetness linger
Method: As used herein, the phrases “sugar-like characteristic,” “sugar-like taste,” “sugar-like sweet,” “sugary,” and “sugar-like” are synonymous. […] These characteristics are dimensions in which the taste of sucrose is different from the tastes of natural and synthetic high-potency sweeteners. Whether or not a characteristic is more sugar-like is determined by expert sensory panel assessments of sugar and compositions comprising at least one natural and/or synthetic high-potency sweetener, both with and without a sweet taste improving composition. Such assessments quantify similarities of the characteristics of compositions comprising at least one natural and/or synthetic high-potency sweetener, both with and without a sweet taste improving composition, with those comprising sugar. Suitable procedures for determining whether a composition has a more sugar-like taste are well known in the art.
In a particular embodiment, a panel of assessors is used to measure the reduction of sweetness linger. Briefly described, a panel of assessors (generally 8 to 12 individuals) is trained to evaluate sweetness perception and measure sweetness at several time points from when the sample is initially taken into the mouth until 3 minutes after it has been expectorated. […] A decrease in score for a time point measured after the sample has cleared the mouth indicates there has been a reduction in sweetness perception.
The panel of assessors may be trained using procedures well known to those of ordinary skill in the art. In a particular embodiment, the panel of assessors may be trained using the Spectrum™ Descriptive Analysis Method (Meilgaard et al, Sensory Evaluation Techniques 3rd edition, Chapter 11). […]
Sensory evaluation of the samples prepared in Example Set G was carried out under the following protocol, similar to that described hereinabove. […] Immediately upon sensing maximal sweetness, the sample was expectorated, the mouth was rinsed with water and the rate of sweetness decay (“Sweetness Linger”) was measured, where attention was focused on the sweetness 3-4 min after the water rinse. […]

rebaudioside A
5: sweetness linger (400 ppm REBA in citric acid/potassium citrate composition equivalent to that in a diet lemon-lime beverage, with or without additive, scale 0-5, sweetness 3-4 min after water rinse) | sweetness linger (500 ppm REBA in carbon-treated water, phosphoric acid (75%) to pH 2.4-2.5, with or without additive, scale 0-5) | Sweetness Linger rating defined for controls (scale anchors defined by the protocol, REBA control sample at 500 ppm)
